Measured values from patent publication US7037502B2, “Peptide with the amino acid sequence of KVLDGQDP having anti-inflammatory properties” (priority 2001, dated 2006).
“Also recorded” adds a separate entry of the source.

Experiments:
PLA2 activated by TGase = target: T1, PLA2 activated by TGase (Cavia cutleri, UniProt P08587); test: Inhibitory effect of synthetic peptides on PLA2 activated by TGase in vitro; assay type: biochemical, Bovine; details: peptides 1×10^−8 M, preincubated with 0.001 Unit TGase 15 min at 37° C.
T1 construct: pre-incubated with 0.001 Unit TGase (Guinea pig liver, Sigma); purchased Sigma
T1 sequence (P08587 2-690 limits assumed): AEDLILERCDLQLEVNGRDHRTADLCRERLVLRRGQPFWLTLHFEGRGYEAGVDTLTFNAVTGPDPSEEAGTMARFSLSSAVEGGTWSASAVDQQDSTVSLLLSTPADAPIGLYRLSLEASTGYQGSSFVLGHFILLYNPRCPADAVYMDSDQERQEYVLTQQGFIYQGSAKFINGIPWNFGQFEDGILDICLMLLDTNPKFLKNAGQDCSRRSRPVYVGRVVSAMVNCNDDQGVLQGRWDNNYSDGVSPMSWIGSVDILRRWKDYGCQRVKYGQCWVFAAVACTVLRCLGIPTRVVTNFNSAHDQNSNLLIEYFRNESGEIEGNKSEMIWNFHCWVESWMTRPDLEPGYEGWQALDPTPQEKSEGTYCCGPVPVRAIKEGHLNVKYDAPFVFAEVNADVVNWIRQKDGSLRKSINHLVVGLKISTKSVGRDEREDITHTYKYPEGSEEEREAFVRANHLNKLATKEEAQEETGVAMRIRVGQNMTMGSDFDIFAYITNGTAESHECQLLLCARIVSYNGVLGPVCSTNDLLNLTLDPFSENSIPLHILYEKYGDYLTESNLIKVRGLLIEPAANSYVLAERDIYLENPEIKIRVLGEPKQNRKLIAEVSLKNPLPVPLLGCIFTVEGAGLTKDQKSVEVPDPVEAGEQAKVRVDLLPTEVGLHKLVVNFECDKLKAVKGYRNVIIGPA
Method: A series of synthetic peptides (1×10^−8 M) were pre-incubated with 0.001 Unit TGase (Guinea pig liver, Sigma) in […] of assay buffer (75 mM Tris-Cl, pH 9.0, 5 mM CaCl2, 1 mg/ml fatty acid free bovine serum albumin) for 15 min at 37° C. We employed a negative control as assay buffer without TGase, and a positive control as TGase without peptides. After pre-incubation, […] of 1-acyl-2-[1-^14C] arachidonic acid-glycerophospho -ethanolamine (about 2×10^5 dpm) was added in pre-incubated mixture, and incubated for 1 hr at 37° C. The reaction was terminated by adding 0.75 ml of Dole's reagent, and followed the same procedure described as above.
For inhibitory test of the peptides given, each value is the mean of data from three separate experiments (S.D.<10%). The increased PLA2 activity by TGase was determined as 100% that was 11.22 pmole arachidonyl/hr. % Inhibition was shown in FIG. 3.

[1] = tested on: allergic conjunctivitis to ragweed (Ambrosia trifida); test: Allergic conjunctivitis to ragweed in guinea pig: clinical scores (conjunctival edema and redness); assay type: in vivo, Hartley female guinea pig; details: for Statistical evaluation of clinical scores (Mann-Whitney test), P compared to Dexamethasone / Statistical evaluation of clinical scores (Mann-Whitney test), P compared to Livostine / Statistical evaluation of clinical scores (Mann-Whitney test), P compared to No treatment group: conjunctival edema and redness score 0-4+, 20 min after allergen challenge, 12 eyes per group, eye drops
Method: The peptides of the present invention were analyzed in experimental model of allergic conjunctivitis to ragweed (giant ragweed; Ambrosia trifida) in guinea pig. Hartley strain of guinea pig was selected according to previous reports of conjunctival anaphylaxis (Calonge M., et al., Acta Ophthalmol 68; 470–476, 1990) and females were chosen based on the sex dimorphism of ocular mucosal immunity with the protective role of male hormones (Saruya S., et al., Act Soc Ophthalmol Jap 72; 833–845, 1968). The conjunctival redness and edema are main signs of seasonal allergic conjunctivitis and eosionphil infiltration is the hallmark of the conjunctival histology in patients with allergic conjunctivitis (Abelson M B., et al., Arch Ophthalmol. 101; 555–556, 1983; Butrus S I., et al., Int. Ophthalmol. Clin. 28; 324–328, 1988) 86 Hartley female guinea pigs, 200–250 g were housed in the animal facilities of the Asan Institute for Life Sciences (Korea), given guinea pig chow and water ad libitum, and cared for in accordance with the Declaration of Helsinki and the National Institute of Health Guide to the Care and Use of the Laboratory Animals (Korea). […] On day 15, immunized guinea pigs were divided 14 groups, 6 for each group. 11 anti-inflammatory peptides including new recombinants, dexamethasone eye drop (Maxidex, 0.1% dexamethasone, Alcon) and anti-histamine eye drop (Livostin, levocabastine, Janssen) were used for 13 groups, and no treatment for one group. Normal controls were employed as 6 non-immunized and non-treated guinea pigs. […] All the procedures were followed experimental model of allergic conjunctivitis described by Merayo-Lloves et al (Experimental model of allergic conjunctivitis to ragweed in guinea pig. Curr. Eye Res. 14; 487–494, 1995). Anti-inflammatory peptides were resolved in sterile saline (100 μmol/40 μl concentration). All peptides and dexamethasone eye solutions were challenged 3 hour prior to the last pollen application on day 15, 10 minutes after pollen application, and 4 times thereafter at the 3 hour interval. Conjunctival edema and redness were judged in room light and under an operating microscope (Zeiss, Germany). The evaluation was performed in a masked fashion at 20 min after allergen challenge and each clinical sign was scored on a scale 0–4+ (0 absent, 1+ minimal, 2+ mild, 3+ moderate, 4+ severe), adapted for guinea pig from previous report (Merayo-Lloves et al: Experimental model of allergic conjunctivitis to ragweed in guinea pig. Curr. Eye Res. 14; 487–494, 1995). Clinical scores of each group (12 eyes in each group) were analyzed.

Row | Sequence | PLA2 activity activated by TGase (FIG. 3), result in words (PLA2 activated by TGase) | Statistical evaluation of clinical scores (Mann-Whitney test), P compared to Dexamethasone [1] | Statistical evaluation of clinical scores (Mann-Whitney test), P compared to Livostine [1] | Statistical evaluation of clinical scores (Mann-Whitney test), P compared to No treatment group [1] | Clinical signs (conjunctival redness and edema scores), result in words ([1]; n=12, P<0.01, SD<10%, Mann-Whitney test, listed as SEQ ID NO:2)
1 | KVLDGQDP [Peptide R2, synthetic peptide of the invention] | significantly reduced | 0.796 | 0.515 | 0.000 | statistically significant difference from other groups; also recorded: most effective
2 | KVLDPVKG [Peptide R1, synthetic peptide of the invention] | significantly reduced | 0.000 | 0.000 | 0.965 | –
